Results as given in patent US11034658B2, “Pyridinyl pyrazoles as modulators of RORγT” (Janssen Pharmaceutica NV, priority 2018, dated 2021).

Tests used:
[1] = target: full-length human RORγt (GAL4-DBD-RORγt fusion) in HEK293T cells (Homo sapiens (Human), UniProt P51449); assay: RORγt (full-length human) reporter assay, conditions A or B; format: cell-based; conditions: for IC50: HEK293T cells, read-out: RORγt (FL) Reporter Assay A or B, IC50; for inhibition at 3 µM / inhibition at 1 µM: HEK-293T, read-out: RORγt (FL) Reporter Assay A or B, % inhibition; for inhibition at 3 µM: 3 μM compound concentration (footnote *); for inhibition at 1 µM: 1 μM compound concentration (footnote ***)
Procedure, shortened: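 HEK293T cells expressing GAL4-DBD-RORγt fusion (96- or 384-well formats, DMEM/10% FBS) exposed to compound overnight (16–20 h). Firefly luciferase normalized to DMSO and saturating reference compound, then to Renilla; IC50 from dose curve, % inhibition versus DMSO.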

[2] = target: human RORγt ligand binding domain (RORγt LBD) (Homo sapiens (Human), UniProt P51449); assay: RORγt ThermoFluor assay
Sequence of human RORγt ligand binding domain (RORγt LBD) (P51449 other isoform, or with tags, fused parts or gaps): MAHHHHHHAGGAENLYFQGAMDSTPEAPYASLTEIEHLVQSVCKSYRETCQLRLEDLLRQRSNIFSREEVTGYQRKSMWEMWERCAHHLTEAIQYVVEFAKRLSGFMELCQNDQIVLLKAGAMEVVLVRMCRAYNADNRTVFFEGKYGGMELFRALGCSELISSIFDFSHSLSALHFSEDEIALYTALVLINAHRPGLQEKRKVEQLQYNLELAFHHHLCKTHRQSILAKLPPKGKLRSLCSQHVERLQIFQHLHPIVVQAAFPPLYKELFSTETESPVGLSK

Sequence of full-length human RORγt (GAL4-DBD-RORγt fusion) in HEK293T cells (P51449 other isoform, or with tags, fused parts or gaps): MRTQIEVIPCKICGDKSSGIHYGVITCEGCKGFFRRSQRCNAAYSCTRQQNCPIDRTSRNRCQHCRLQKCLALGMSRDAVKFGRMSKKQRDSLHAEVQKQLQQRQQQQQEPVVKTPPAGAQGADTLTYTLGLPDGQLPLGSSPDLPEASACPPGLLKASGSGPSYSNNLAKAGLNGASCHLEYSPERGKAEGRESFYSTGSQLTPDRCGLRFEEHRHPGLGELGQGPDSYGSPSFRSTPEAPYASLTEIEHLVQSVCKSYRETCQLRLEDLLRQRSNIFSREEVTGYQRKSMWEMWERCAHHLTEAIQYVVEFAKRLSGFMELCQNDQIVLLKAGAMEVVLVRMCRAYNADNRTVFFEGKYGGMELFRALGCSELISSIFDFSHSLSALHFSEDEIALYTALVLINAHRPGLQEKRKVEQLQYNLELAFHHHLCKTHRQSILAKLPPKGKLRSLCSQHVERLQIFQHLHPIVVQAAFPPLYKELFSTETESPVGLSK

IC50 [1]	inhibition at 3 µM [1]	Kd [2]	inhibition at 1 µM [1]	Structure (SMILES)
130 nM	20%	47 nM		CCn1nc(C(=O)NC[C@]2(O)CC[C@@H](S(C)(=O)=O)CC2)c(Cl)c1-c1cnc(CC(C)(C)C(F)(F)F)cc1C(F)F [Example 27, 4-Chloro-5-(4-(difluoromethyl)-6-(3,3,3-trifluoro-2,2-dimethylpropyl)pyridin-3-yl)-1-ethyl-N-(((1s,4s)-1-hydroxy-4-(methylsulfonyl)cyclohexyl)methyl)-1H-pyrazole-3-carboxamide]
2 nM	76%	97 nM		CCn1nc(C(=O)NC[C@]2(O)CC[C@@H](S(C)(=O)=O)CC2)c(C)c1-c1cnc(CC(C)(C)C(F)(F)F)cc1C(F)F [Example 28, 5-(4-(Difluoromethyl)-6-(3,3,3-trifluoro-2,2-dimethylpropyl)pyridin-3-yl)-1-ethyl-N-(((1s,4s)-1-hydroxy-4-(methylsulfonyl)cyclohexyl)methyl)-4-methyl-1H-pyrazole-3-carboxamide]
100 nM	98%	10 nM		Cn1nc(C(=O)NC[C@H]2CC[C@H](S(C)(=O)=O)CC2)c(Cl)c1-c1cnc(CC(C)(C)C(F)(F)F)cc1OC(F)F [Example 30, 4-Chloro-5-(4-(difluoromethoxy)-6-(3,3,3-trifluoro-2,2-dimethylpropyl)pyridin-3-yl)-1-methyl-N-(((1r,4r)-4-(methylsulfonyl)cyclohexyl)methyl)-1H-pyrazole-3-carboxamide]
160 nM		26 nM	100%	Cc1c(C(=O)NC[C@H]2CC[C@H](S(C)(=O)=O)CC2)nn(C)c1-c1cnc(CC(C)(C)C(F)(F)F)cc1OC(F)F [Example 31]
54 nM	129%	18 nM		CCn1nc(C(=O)NC[C@H]2CC[C@H](S(C)(=O)=O)CC2)c(Cl)c1-c1cnc(CCCC(F)(F)F)cc1OC(F)F [Example 32, 4-Chloro-5-(4-(difluoromethoxy)-6-(4,4,4-trifluorobutyl)pyridin-3-yl)-1-ethyl-N-(((1r,4r)-4-(methylsulfonyl)cyclohexyl)methyl)-1H-pyrazole-3-carboxamide]
1100 nM	66%	62 nM		CCn1nc(C(=O)NC[C@]2(O)CC[C@@H](S(C)(=O)=O)CC2)c(Cl)c1-c1cnc(CCCC(F)(F)F)cc1OC(F)F [Example 33, 4-Chloro-5-(4-(difluoromethoxy)-6-(4,4,4-trifluorobutyl)pyridin-3-yl)-1-ethyl-N-(((1s,4s)-1-hydroxy-4-(methylsulfonyl)cyclohexyl)methyl)-1H-pyrazole-3-carboxamide]
58 nM		34 nM	92%	CCn1nc(C(=O)NC[C@H]2CC[C@H](S(C)(=O)=O)CC2)c(C)c1-c1cnc(CCCC(F)(F)F)cc1OC(F)F [Example 34, 5-(4-(Difluoromethoxy)-6-(4,4,4-trifluorobutyl)pyridin-3-yl)-1-ethyl-4-methyl-N-(((1r,4r)-4-(methylsulfonyl)cyclohexyl)methyl)-1H-pyrazole-3-carboxamide]
63 nM		100 nM	76%	CCn1nc(C(=O)NC[C@]2(O)CC[C@@H](S(C)(=O)=O)CC2)c(C)c1-c1cnc(CCCC(F)(F)F)cc1OC(F)F [Example 35, 5-(4-(Difluoromethoxy)-6-(4,4,4-trifluorobutyl)pyridin-3-yl)-1-ethyl-N-(((1s,4s)-1-hydroxy-4-(methylsulfonyl)cyclohexyl)methyl)-4-methyl-1H-pyrazole-3-carboxamide]
33 nM	104%	20 nM		CCn1nc(C(=O)NC[C@]2(O)CC[C@@H](S(C)(=O)=O)CC2)c(Cl)c1-c1cnc(OCC(C)(C)C(F)(F)F)cc1OC [Example 36, 4-Chloro-1-ethyl-N-(((1s,4s)-1-hydroxy-4-(methylsulfonyl)cyclohexyl)methyl)-5-(4-methoxy-6-(3,3,3-trifluoro-2,2-dimethylpropoxy)pyridin-3-yl)-1H-pyrazole-3-carboxamide]
220 nM	88%	15 nM		CCn1nc(C(=O)NC[C@]2(O)CC[C@@H](S(C)(=O)=O)CC2)c(Cl)c1-c1cnc(CC(C)(C)C(F)F)cc1OC(F)F [Example 38, 4-Chloro-5-(6-(3,3-difluoro-2,2-dimethylpropyl)-4-(difluoromethoxy)pyridin-3-yl)-1-ethyl-N-(((1s,4s)-1-hydroxy-4-(methylsulfonyl)cyclohexyl)methyl)-1H-pyrazole-3-carboxamide]
45 nM	102%	6.9 nM		CCn1nc(C(=O)NC[C@H]2CC[C@H](S(C)(=O)=O)CC2)c(C)c1-c1cnc(CC(C)(C)C(F)F)cc1OC(F)F [Example 41, 5-(6-(3,3-Difluoro-2,2-dimethylpropyl)-4-(difluoromethoxy)pyridin-3-yl)-1-ethyl-4-methyl-N-(((1r,4r)-4-(methylsulfonyl)cyclohexyl)methyl)-1H-pyrazole-3-carboxamide]
430 nM	95%	35 nM		CCn1nc(C(=O)NC[C@]2(O)CC[C@@H](S(C)(=O)=O)CC2)c(C)c1-c1cnc(CC(C)(C)C(F)F)cc1OC(F)F [Example 42, 5-(6-(3,3-Difluoro-2,2-dimethylpropyl)-4-(difluoromethoxy)pyridin-3-yl)-1-ethyl-N-(((1s,4s)-1-hydroxy-4-(methylsulfonyl)cyclohexyl)methyl)-4-methyl-1H-pyrazole-3-carboxamide]
11 nM	86%	0.35 nM		CCn1nc(C(=O)NC[C@H]2CC[C@H](S(C)(=O)=O)CC2)c(Cl)c1-c1ccc(CC(C)(C)C(F)(F)F)nc1OC(F)F [Example 45, 4-Chloro-5-(2-(difluoromethoxy)-6-(3,3,3-trifluoro-2,2-dimethylpropyl)pyridin-3-yl)-1-ethyl-N-(((1r,4r)-4-(methylsulfonyl)cyclohexyl)methyl)-1H-pyrazole-3-carboxamide]
89 nM	97%	0.66 nM		CCn1nc(C(=O)NC[C@]2(O)CC[C@@H](S(C)(=O)=O)CC2)c(Cl)c1-c1ccc(CC(C)(C)C(F)(F)F)nc1OC(F)F [Example 46, 4-Chloro-5-(2-(difluoromethoxy)-6-(3,3,3-trifluoro-2,2-dimethylpropyl)pyridin-3-yl)-1-ethyl-N-(((1s,4s)-1-hydroxy-4-(methylsulfonyl)cyclohexyl)methyl)-1H-pyrazole-3-carboxamide]
6.4 nM	106%	0.28 nM		CCn1nc(C(=O)NC[C@H]2CC[C@H](S(C)(=O)=O)CC2)c(C)c1-c1ccc(CC(C)(C)C(F)(F)F)nc1OC(F)F [Example 49, 5-(2-(Difluoromethoxy)-6-(3,3,3-trifluoro-2,2-dimethylpropyl)pyridin-3-yl)-1-ethyl-4-methyl-N-(((1r,4r)-4-(methylsulfonyl)cyclohexyl)methyl)-1H-pyrazole-3-carboxamide]
20 nM		1.3 nM	100%	CCn1nc(C(=O)NC[C@]2(O)CC[C@@H](S(C)(=O)=O)CC2)c(C)c1-c1ccc(CC(C)(C)C(F)(F)F)nc1OC(F)F [Example 50, 5-(2-(Difluoromethoxy)-6-(3,3,3-trifluoro-2,2-dimethylpropyl)pyridin-3-yl)-1-ethyl-N-(((1s,4s)-1-hydroxy-4-(methylsulfonyl)cyclohexyl)methyl)-4-methyl-1H-pyrazole-3-carboxamide]
58 nM	85%	4.7 nM		CCn1nc(C(=O)NC[C@H]2CC[C@H](S(C)(=O)=O)CC2)c(Cl)c1-c1ncc(CC(C)(C)C(F)(F)F)cc1OC(F)F [Example 52, 4-Chloro-5-(3-(difluoromethoxy)-5-(3,3,3-trifluoro-2,2-dimethylpropyl)pyridin-2-yl)-1-ethyl-N-(((1r,4r)-4-(methylsulfonyl)cyclohexyl)methyl)-1H-pyrazole-3-carboxamide]
250 nM	83%	18 nM		CCn1nc(C(=O)NC[C@]2(O)CC[C@@H](S(C)(=O)=O)CC2)c(Cl)c1-c1ncc(CC(C)(C)C(F)(F)F)cc1OC(F)F [Example 53, 4-Chloro-5-(3-(difluoromethoxy)-5-(3,3,3-trifluoro-2,2-dimethylpropyl)pyridin-2-yl)-1-ethyl-N-(((1s,4s)-1-hydroxy-4-(methylsulfonyl)cyclohexyl)methyl)-1H-pyrazole-3-carboxamide]
240 nM	42%	13 nM		CCn1nc(C(=O)NC[C@H]2CC[C@H](S(C)(=O)=O)CC2)c(Cl)c1-c1cnc(CC(C)(C)C(F)(F)F)cc1C(C)(F)F [Example 54, 4-Chloro-5-(4-(1,1-difluoroethyl)-6-(3,3,3-trifluoro-2,2-dimethylpropyl)pyridin-3-yl)-1-ethyl-N-(((1r,4r)-4-(methylsulfonyl)cyclohexyl)methyl)-1H-pyrazole-3-carboxamide]
280 nM	78%	30 nM		CCc1cc(CC(C)(C)C(F)(F)F)ncc1-c1c(Cl)c(C(=O)NC[C@]2(O)CC[C@@H](S(C)(=O)=O)CC2)nn1CC [Example 55, 4-Chloro-1-ethyl-5-(4-ethyl-6-(3,3,3-trifluoro-2,2-dimethylpropyl)pyridin-3-yl)-N-(((1s,4s)-1-hydroxy-4-(methylsulfonyl)cyclohexyl)methyl)-1H-pyrazole-3-carboxamide]
